Data from ChEMBL document CHEMBL4390687, “Dispiropyrrolidinyl-piperidone embedded indeno[1,2-b]quinoxaline heterocyclic hybrids: Synthesis, cholinesterase inhibitory activity and their molecular docking simulation” (Bioorg Med Chem, 2019).

Key:
[1] = Selectivity index, ratio of IC50 for electric eel AChE to IC50 for equine serum BChE
[2] = Selectivity index, ratio of IC50 for equine serum BChE to IC50 for electric eel AChE
Cholinesterase = Cholinesterase (Equus caballus, UniProt P81908); assay: Inhibition of equine serum BChE using butyrylthiocholine chloride as substrate preincubated for 15 mins followed by substrate addition and measured after 30 mins by Ellman's method
Acetylcholinesterase = Acetylcholinesterase (Electrophorus electricus, UniProt O42275); assay: Inhibition of electric eel AChE using acetylthiocholine iodide as substrate preincubated for 15 mins followed by substrate addition and measured after 30 mins by Ellman's method
Acetylcholinesterase, sequence (O42275 whole entry): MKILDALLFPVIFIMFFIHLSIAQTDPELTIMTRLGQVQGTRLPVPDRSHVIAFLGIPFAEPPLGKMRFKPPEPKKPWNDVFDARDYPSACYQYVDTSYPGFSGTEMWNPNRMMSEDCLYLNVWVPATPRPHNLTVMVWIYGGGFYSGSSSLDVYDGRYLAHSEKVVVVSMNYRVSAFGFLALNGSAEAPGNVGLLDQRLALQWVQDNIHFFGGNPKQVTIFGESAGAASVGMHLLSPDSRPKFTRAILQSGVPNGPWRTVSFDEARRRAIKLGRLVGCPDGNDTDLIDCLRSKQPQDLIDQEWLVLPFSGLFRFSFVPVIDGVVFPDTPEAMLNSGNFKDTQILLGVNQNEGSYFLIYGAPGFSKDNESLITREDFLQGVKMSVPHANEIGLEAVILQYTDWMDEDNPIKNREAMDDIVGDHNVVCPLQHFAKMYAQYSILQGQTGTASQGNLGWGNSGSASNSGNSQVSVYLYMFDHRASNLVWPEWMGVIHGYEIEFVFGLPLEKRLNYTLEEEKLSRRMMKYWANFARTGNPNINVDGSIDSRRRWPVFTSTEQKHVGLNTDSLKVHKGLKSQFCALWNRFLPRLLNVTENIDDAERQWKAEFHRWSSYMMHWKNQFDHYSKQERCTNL

Cholinesterase, sequence (P81908 whole entry): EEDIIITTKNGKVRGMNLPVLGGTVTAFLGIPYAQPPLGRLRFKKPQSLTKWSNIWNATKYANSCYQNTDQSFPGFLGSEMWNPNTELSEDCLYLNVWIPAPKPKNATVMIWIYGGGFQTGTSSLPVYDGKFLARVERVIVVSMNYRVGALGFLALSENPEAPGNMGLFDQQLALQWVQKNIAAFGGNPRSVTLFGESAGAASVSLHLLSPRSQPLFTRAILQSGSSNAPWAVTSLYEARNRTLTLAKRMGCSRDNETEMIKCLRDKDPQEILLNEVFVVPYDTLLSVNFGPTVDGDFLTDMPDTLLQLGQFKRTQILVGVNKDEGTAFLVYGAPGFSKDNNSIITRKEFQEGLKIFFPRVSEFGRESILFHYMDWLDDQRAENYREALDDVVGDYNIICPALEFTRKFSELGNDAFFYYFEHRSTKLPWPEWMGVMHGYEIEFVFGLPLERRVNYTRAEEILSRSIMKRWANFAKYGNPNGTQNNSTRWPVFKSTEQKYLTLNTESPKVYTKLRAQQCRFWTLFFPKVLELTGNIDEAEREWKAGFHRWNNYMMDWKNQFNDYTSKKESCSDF

Cc1ccc(/C=C2\CNCC3(C2=O)C(c2ccc(C)cc2)C(Cc2c[nH]c4ccccc24)NC32c3ccccc3C3N=c4ccccc4=NC32)cc1 (stereo not given)
Ratio IC50 [1]: 0.26 | Ratio IC50 [2]: 3.85 | IC50 (Cholinesterase): 12.4 µM | IC50 (Acetylcholinesterase): 3.22 µM

O=C1/C(=C/c2ccccc2Cl)CNCC12C(c1ccccc1Cl)C(Cc1c[nH]c3ccccc13)NC21c2ccccc2C2N=c3ccccc3=NC21 (stereo not given)
Ratio IC50 [1]: 0.62 | Ratio IC50 [2]: 1.63 | IC50 (Cholinesterase): 26.7 µM | IC50 (Acetylcholinesterase): 16.4 µM

O=C1/C(=C/c2ccccc2)CNCC12C(c1ccccc1)C(Cc1c[nH]c3ccccc13)NC21c2ccccc2C2N=c3ccccc3=NC21 (stereo not given)
Ratio IC50 [1]: 0.52 | Ratio IC50 [2]: 1.93 | IC50 (Cholinesterase): 14.2 µM | IC50 (Acetylcholinesterase): 7.35 µM

O=C1/C(=C/c2ccc(Cl)cc2)CNCC12C(c1ccc(Cl)cc1)C(Cc1c[nH]c3ccccc13)NC21c2ccccc2C2N=c3ccccc3=NC21 (stereo not given)
Ratio IC50 [1]: 0.67 | Ratio IC50 [2]: 1.5 | IC50 (Cholinesterase): 18.8 µM | IC50 (Acetylcholinesterase): 12.5 µM

O=C1/C(=C/c2cccc([N+](=O)[O-])c2)CNCC12C(c1cccc([N+](=O)[O-])c1)C(Cc1c[nH]c3ccccc13)NC21c2ccccc2C2N=c3ccccc3=NC21 (stereo not given)
Ratio IC50 [1]: 0.19 | Ratio IC50 [2]: 5.2 | IC50 (Cholinesterase): 10.5 µM | IC50 (Acetylcholinesterase): 2.01 µM

O=C1/C(=C/c2ccc(Cl)cc2Cl)CNCC12C(c1ccc(Cl)cc1Cl)C(Cc1c[nH]c3ccccc13)NC21c2ccccc2C2N=c3ccccc3=NC21 (stereo not given)
Ratio IC50 [1]: 0.58 | Ratio IC50 [2]: 1.73 | IC50 (Cholinesterase): 17.6 µM | IC50 (Acetylcholinesterase): 10.2 µM

COc1ccc(/C=C2\CNCC3(C2=O)C(c2ccc(OC)cc2)C(Cc2c[nH]c4ccccc24)NC32c3ccccc3C3N=c4ccccc4=NC32)cc1 (stereo not given)
Ratio IC50 [1]: 0.31 | Ratio IC50 [2]: 3.22 | IC50 (Cholinesterase): 23.2 µM | IC50 (Acetylcholinesterase): 7.2 µM

Cc1cccc(/C=C2\CNCC3(C2=O)C(c2cccc(C)c2)C(Cc2c[nH]c4ccccc24)NC32c3ccccc3C3N=c4ccccc4=NC32)c1 (stereo not given)
Ratio IC50 [1]: 0.45 | Ratio IC50 [2]: 2.22 | IC50 (Cholinesterase): 15.2 µM | IC50 (Acetylcholinesterase): 6.84 µM

O=C1/C(=C/c2ccc(Br)cc2)CNCC12C(c1ccc(Br)cc1)C(Cc1c[nH]c3ccccc13)NC21c2ccccc2C2N=c3ccccc3=NC21 (stereo not given)
Ratio IC50 [1]: 0.74 | Ratio IC50 [2]: 1.35 | IC50 (Cholinesterase): 20.6 µM | IC50 (Acetylcholinesterase): 15.2 µM

Cc1ccccc1/C=C1\CNCC2(C1=O)C(c1ccccc1C)C(Cc1c[nH]c3ccccc13)NC21c2ccccc2C2N=c3ccccc3=NC21 (stereo not given)
Ratio IC50 [1]: 0.39 | Ratio IC50 [2]: 2.54 | IC50 (Cholinesterase): 14.7 µM | IC50 (Acetylcholinesterase): 5.8 µM
